Reference: patent US20080201871A1, “ANTIMICROBIAL COLORANTS” (The Regents of the University of California, priority 2003, published 2008)

Assays:
E. coli [1] = assay: Antimicrobial efficacy (log reduction) at fixed concentration and contact time; assay type: cell-based, Escherichia coli; conditions: E. coli 10^7~10^8 CFU/ml; for Antimicrobial Efficacy (log reduction): 10 ppm
[2] = tested on: Staphylococcus aureus (S. aureus, ATCC #12600, Gram-positive); assay: Minimum inhibitory concentration (MIC) procedure in aqueous solution; assay type: cell-based; conditions: 10^7~10^8 CFU/mL, contact time: 24 hr, MIC = minimum concentration giving more than 4 log reductions
Procedure: (§1) Antimicrobial activity of the agents in aqueous solution was evaluated by a minimum inhibitory concentration (MIC) procedure ([…]. et al., Pharm. Sci., 65(12):1737 (1976)). MIC refers to the lowest concentration of biocides that prohibit population and reproduction of microorganisms. […] Antimicrobial properties of the antimicrobial colorants in aqueous solutions were measured by the MIC procedure.

[3] = tested on: Escherichia coli (E. coli, K-12, Gram-negative); assay: as above; assay type: cell-based; conditions: 10^7~10^8 CFU/mL, contact time: 24 hr, MIC = minimum concentration giving more than 4 log reductions
Procedure: as §1

E. coli [4] = assay: Antimicrobial efficacy (log reduction) at fixed concentration and contact time; assay type: cell-based, Escherichia coli; conditions: for Antimicrobial efficacy (Log reduction): contact time 1 minute; for Antimicrobial efficacy (Log reduction) / Antimicrobial Efficacy (log reduction): 10 ppm
Procedure: Antimicrobial activity of the agents in aqueous solution was evaluated by a minimum inhibitory concentration (MIC) procedure (Kaminski, J. J., Hyycke, N. M. et al., Pharm. Sci., 65(12):1737 (1976)). MIC refers to the lowest concentration of biocides that prohibit population and reproduction of microorganisms. In this method, 1 mL of an aqueous suspension containing 10^6˜10^7 colony-forming units (CFU)/mL of Staphylococcus aureus (S. aureus, ATCC #12600, Gram-positive) or Escherichia coli (E. coli, K-12, Gram-negative) were placed into 9 mL aqueous solutions containing different concentrations of the agents for a contact time of 24 hours. After the contact, a 100 μL aliquot of the resultant solution was serially diluted by sterilized distilled water to 10^1, 10^2, 10^3, 10^4 and 10^5. 100 μL of the last four dilutions were placed onto a nutrient agar plate and incubated at 37° C. for 24 hours. The same procedure was applied to a distilled water solution without the antimicrobial agents as a control. In this paper, the reported MIC of the antimicrobial colorants is the minimum concentrations that can eliminate more than 4 log reductions of bacteria (1 log reduction is 90%, 2 log reduction is 99%, and so forth).
To better study the biocidal rate of these colorants, the antimicrobial efficacy of the colorants in terms of log reduction is assessed against E. Coli under different contact time ranging from 15 minutes to 24 hours.
Next, the antimicrobial efficacy of the colorants is further challenged by reducing the contact time down to 1 minute at the concentration of 10 ppm.

S. aureus = assay: as above; assay type: cell-based, Staphylococcus aureus; conditions: contact time 1 minute, 10 ppm
[5] = Stability study of colorant solutions by UV-vis absorbance; assay type: physicochemical; conditions: 100 ppm aqueous; 100° C. for 4 hours
Procedure: The stability of the antimicrobial colorants was qualitatively studied by using a UV-vis spectrophotometer under different experimental conditions. The tests were performed with antimicrobial colorant solutions at the concentration of 100 ppm in flasks. The colorants were sampled and the absorbance at the maximum absorption wavelength was tested before treatment as a reference. After visible light exposure in a conditioning room for over 30 days, or heating at boiling for 4 hours, or changing to different pH conditions (pH=4 and 10) for over 24 hours, the solutions were sampled, centrifuged, filtered and tested by UV. The new UV-vis spectra were taken and compared with the control.
The stability of the antimicrobial colorants is of great importance because they are mostly applied in aqueous solutions as biocides or dyes. All stability tests were conducted at a concentration of 100 ppm.
In practical applications, these colorants could be used under either acidic or basic conditions, particularly in coloration of acrylics, nylon and wool. For example, acidic dye bath is preferred for dyeing wool fabrics. Thus, the stability of the colorants in low or high pH solution is more important for textile applications. […] The low stability of those colorants was caused by hydrolysis of an amide linkage between QAS and aminoanthraquinone. […]

Compound	Antimicrobial Efficacy (log reduction) (E. coli [1])	MIC of cationic colorants [2] [ppm]	MIC of cationic colorants [3] [ppm]	Antimicrobial efficacy (Log reduction) (E. coli [4])	Antimicrobial efficacy (Log reduction) (S. aureus)	Antimicrobial Efficacy (log reduction) (E. coli [4]; contact time 0.25 hr)	Antimicrobial Efficacy (log reduction) (E. coli [4]; contact time 0.5 hr)	Antimicrobial Efficacy (log reduction) (E. coli [4]; contact time 1 hr)	Antimicrobial Efficacy (log reduction) (E. coli [4]; contact time 2 hr)	Antimicrobial Efficacy (log reduction) (E. coli [4]; contact time 4 hr)	Antimicrobial Efficacy (log reduction) (E. coli [4]; contact time 8 hr)	Antimicrobial Efficacy (log reduction) (E. coli [4]; contact time 16 hr)	Antimicrobial Efficacy (log reduction) (E. coli [4]; contact time 24 hr)	Log reduction (E. coli [1]; 5 ppm, contact time 1 minute) [Log reduction]	Change of UV-vis absorbance after heating [5]	Change of UV-vis wavelength after heating [5]	Biocidal activity compared with CTAB, CPC and Benzalkonium chloride (E. coli [4]; Table 6 conditions)
CCCCCCCCCCCCCCCC[N+](C)(C)Cc1ccccc1.[Cl-] [Benzalkonium chloride, Benzyldimethyl-hexadecylammonium chloride, reference compound]	2	–	–	–	–	–	–	–	–	–	–	–	–	–	–	–	–
CCCCCCCCCCCCCCCC[N+](C)(C)C.[Br-] [CTAB, Cetyltrimethyl ammonium bromide, reference compound]	0	–	–	–	–	–	–	–	–	–	–	–	–	–	–	–	–
CCCCCCCCCCCCCCCC[N+](C)(C)CC(O)CNc1cccc2c1C(=O)c1ccccc1C2=O.[Cl-] (centres unmarked) [Compound M-16]	–	60	60	0	0	–	–	–	–	–	–	–	–	–	–	–	–
CCCC[N+](C)(C)CC(O)CNc1ccc(NCC(O)C[N+](C)(C)CCCC)c2c1C(=O)c1ccccc1C2=O.[Cl-].[Cl-] (centres unmarked) [Di-4]	–	200	200	0	0	0	0	0	0	0	0	0	0	–	–	–	–
CCCCCCCC[N+](C)(C)CC(O)CNc1ccc(NCC(O)C[N+](C)(C)CCCCCCCC)c2c1C(=O)c1ccccc1C2=O.[Cl-].[Cl-] (centres unmarked) [Di-8]	–	5	5	–	–	>4	>4	>4	>4	>4	>4	>4	>4	1	–	–	–
CCCCCCCCCCCC[N+](C)(C)CC(O)CNc1ccc(NCC(O)C[N+](C)(C)CCCCCCCCCCCC)c2c1C(=O)c1ccccc1C2=O.[Cl-].[Cl-] (centres unmarked) [Di-12]	>5	4	4	–	–	>4	>4	>4	>4	>4	>4	>4	>4	–	slight increases in absorbance	negligible change	more efficient in biocidal activity than the other three bactericides
CCCCCCCCCCCCCCCC[N+](C)(C)CC(O)CNc1ccc(NCC(O)C[N+](C)(C)CCCCCCCCCCCCCCCC)c2c1C(=O)c1ccccc1C2=O.[Cl-].[Cl-] (centres unmarked) [Di-16]	–	60	60	0	0	–	–	–	–	–	–	–	–	–	–	–	–
